Paper PMC6413183, “Regulatory Aspects of the Vacuolar CAT2 Arginine Transporter of S. lycopersicum: Role of Osmotic Pressure and Cations” (International Journal of Molecular Sciences, 2019)
Like-named read-outs stand apart in the source and are kept apart here.

What was measured:
[1] = tested on: SlCAT2; assay: [3H]Arg uptake in proteoliposomes reconstituted with recombinant SlCAT2; format: biochemical, S. lycopersicum; conditions: for effect of intraliposomal cations on [3H]Arg uptake: cation in internal compartment at about vacuolar concentration, K+ and Na+ versus no osmolytes, extent equal to isoosmolar sucrose (osmotic effect); for inhibition of [3H]Arg uptake by external divalent cations / inhibition of [3H]Arg uptake by external monovalent cations: extraliposomal cation at about cytosolic concentration; for inhibition of [3H]Arg uptake by external divalent cations: with respect to sucrose (1.2 mM) used as control of osmolality; for effect of external K+ salts on [3H]Arg uptake: salt in extraliposomal compartment, KCl compared to K-gluconate; for inhibition of [3H]Arg uptake by external monovalent cations: with respect to 40 mM sucrose used as control of osmolality
Method: The desalted SlCAT2 was reconstituted by removing the detergent from mixed micelles containing detergent, protein, and phospholipids by incubation with Amberlite XAD-4 in a batch-wise procedure, as previously described. The composition of the initial mixture used for reconstitution (except when differently indicated) was 400 µL of the purified protein (6 µg protein in 0.1% DDM), 80 µL of 10 % TX-100, 120 µL of 10% egg yolk phospholipids in the form of sonicated liposomes prepared as previously described, 15 mM ATP, and 10 mM Tris Hepes pH 7.5 (except where differently indicated) in a final volume of 700 µL. After vortexing, this mixture was incubated with 0.5 g Amberlite XAD-4 under rotatory stirring (1200 rpm) at 23 °C for 40 min in a batchwise procedure as previously pointed out.
Five-hundred-and-fifty microliters of proteoliposomes were passed through a Sephadex G-75 column (0.7 cm diameter × 15 cm height) preequilibrated with 10 mM Tris Hepes pH 7.5. From these columns, 550 µL of proteoliposomes were collected and divided into aliquots (samples) of 100 µL. Transport was started by adding 100 µM of [^3H]Arg to the proteoliposome samples. The pH gradient experiments were performed reconstituting protein in liposome with 10 mM Tris Hepes pH 5.5. After incubation with Amberlite XAD 4 resin, 550 µL of proteoliposomes were passed through a Sephadex G-75 column preequilibrated with 0.5 mM Tris Hepes pH 5.5.
The changes in external/internal osmolality were performed by adding in the extraliposomal/intraliposomal compartment appropriate concentrations of sucrose as indicated in the figure legend.
Transport reaction was stopped by adding 5 mM Pyridoxal Phosphate (PLP); according to the stop inhibitor method, the same inhibitor was added at time zero to control samples (blank). The initial rate was measured in 10 min, i.e., in the linear range of time courses as previously described. The PLP insensitive radioactivity associated with the control samples (blank) was less than 30% with respect to the PLP-sensitive arginine transport.
The experimental values were corrected by subtracting the respective controls. Specific activity was calculated and expressed as nmol/mg at a given time of measurement or as nmol/(mg × min) in the case of initial rate measurement. For calculation of initial rate, transport was measured in 10 min, i.e., within the initial linear part of the uptake. Grafit 5.0.13 software (Erithacus Software, West Sussex, UK) was used to derive IC50 values in inhibition assays and to measure transport rate by first-order rate equation and by a single exponential decay with offset.

[2] = tested on: SlCAT2; assay: [3H]Arg efflux from preloaded proteoliposomes reconstituted with SlCAT2; format: biochemical, S. lycopersicum; conditions: 0.45 mM Mg2+ in the extraliposomal compartment; proteoliposomes preloaded with 100 µM [3H]Arg
Method: Figure 9 Efflux from proteoliposomes reconstituted with SlCAT2. SlCAT2 was purified and reconstituted in proteoliposomes as described in Section 4.4. Arginine efflux was measured at the indicated time, as described in Section 4.5. Internal residual radioactivity was measured as percent with respect to control (time 0), in the absence (open circle) or in the presence (closed circle) of 0.45 mM Mg^2+ in the extraliposomal compartment. Data are plotted using the single exponential equation with offset as described in Section 4.5. Results are the means ± SD from three experiments.
For efflux measurements, proteoliposomes containing 15 mM ATP were preloaded by incubation with 100 µM [^3H]Arg (1 µCi/mL) for 90 min [64]. In both uptake and efflux, transport was stopped by passing 100 µL of each sample through a Sephadex G-75 column (0.6 cm diameter × 8 cm height) in order to separate the external from the internal radioactivity. Samples were eluted with 1 mL 50 mM NaCl and collected in 4 mL of scintillation mixture, vortexed and counted.
The experimental values were corrected by subtracting the respective controls. Specific activity was calculated and expressed as nmol/mg at a given time of measurement or as nmol/(mg × min) in the case of initial rate measurement. For calculation of initial rate, transport was measured in 10 min, i.e., within the initial linear part of the uptake. […]

[3] = cation in extraliposomal compartment (NaCl, K-gluconate, NH4Cl, MgCl2), 100 μM [3H]Arg, 20 min, proteoliposomes containing 200 mM sucrose and 15 mM ATP, pH 7.5, read-out: IC50 for inhibition of [3H]Arg uptake by external cations

## Nc1ncnc2c1ncn2[C@@H]1O[C@H](COP(=O)(O)OP(=O)([O-])OP(=O)([O-])O)[C@@H](O)[C@H]1O.[Na+].[Na+] [ATP]
[1]; ATP (Na+)2 salt added externally, partially due to Na+ and osmolality, 200 mM sucrose and 15 mM ATP inside, pH 7.5, 20 min
  effect of extraliposomal ATP on [3H]Arg uptake: inhibited

## CC(C)CCC[C@@H](C)[C@H]1CC[C@H]2[C@@H]3CC=C4C[C@@H](OC(=O)CCC(=O)O)CC[C@]4(C)[C@H]3CC[C@]12C [CHS, Cholesteryl hemisuccinate, reference compound]
[1]; 1 mg of CHS in 1 mL proteoliposomes, corresponding to 10% of total lipid composition, 20 min, pH 7.5
  stimulation of [3H]Arg uptake by CHS in the proteoliposomal membrane: up to 30%

## [Ca+2].[Cl-].[Cl-] [Ca^2+]
[1]; 15 mM ATP, pH 7.5, 20 min
  effect of intraliposomal cations on [3H]Arg uptake: did not exert any significant effect
[1]; 20 min, pH 7.5
  inhibition of [3H]Arg uptake by external divalent cations: did not exert a significant effect

## O=C([O-])[C@H](O)[C@@H](O)[C@H](O)[C@H](O)CO.[K+] [K-gluconate]
[1]; 20 min, pH 7.5
  effect of external K+ salts on [3H]Arg uptake: no difference between the two K^+ salts

## [Cl-].[K+] [KCl]
[1]; 20 min, pH 7.5
  effect of external K+ salts on [3H]Arg uptake: inhibited

## [K+] [K^+]
[1]; [3]
  IC50: 11.3 ± 1.2 mM
[1]; 15 mM ATP, pH 7.5, 20 min
  effect of intraliposomal cations on [3H]Arg uptake: activation
[1]; 20 min, pH 7.5
  inhibition of [3H]Arg uptake by external monovalent cations: ~ 40%

## [Cl-].[Cl-].[Mg+2] [Mg^2+]
[1]; Mg2+ in internal compartment, 200 mM sucrose, no intraliposomal ATP, 20 min
  inhibition of [3H]Arg uptake by intraliposomal Mg2+ in the absence of internal ATP: virtually disappeared
[1]; Mg2+ in internal compartment, with 200 mM sucrose and 15 mM intraliposomal ATP, pH 7.5, 20 min, read-out: IC50 for inhibition of [3H]Arg uptake by intraliposomal Mg2+
  IC50: 23 ± 9.9 mM
[1]; [3]
  IC50: 0.42 ± 0.18 mM
[1]; 15 mM ATP, pH 7.5, 20 min
  effect of intraliposomal cations on [3H]Arg uptake: strong inhibitory effect
[1]; 20 min, pH 7.5
  inhibition of [3H]Arg uptake by external divalent cations: 33%
[2]
  effect of external Mg2+ on [3H]Arg efflux: no, or only a slight, effect

## Cl.N [NH4^+]
[1]; [3]
  IC50: 5.7 ± 1.49 mM
[1]; 15 mM ATP, pH 7.5, 20 min
  effect of intraliposomal cations on [3H]Arg uptake: did not exert any significant effect
[1]; 20 min, pH 7.5
  inhibition of [3H]Arg uptake by external monovalent cations: ~ 40%

## [Cl-].[Na+] [Na^+]
[1]; [3]
  IC50: 10.9 ± 0.8 mM
[1]; 15 mM ATP, pH 7.5, 20 min
  effect of intraliposomal cations on [3H]Arg uptake: activation
[1]; 20 min, pH 7.5
  inhibition of [3H]Arg uptake by external monovalent cations: ~ 40%

## OC[C@H]1O[C@@](CO)(O[C@H]2O[C@H](CO)[C@@H](O)[C@H](O)[C@H]2O)[C@@H](O)[C@@H]1O [sucrose]
[1]; 1.2 mM sucrose external, with respect to control without sucrose
  effect of 1.2 mM external sucrose on transport activity: no difference of activity
[1]; 40 mM sucrose external, with respect to the condition without sucrose
  effect of 40 mM external sucrose on transport activity: caused a reduction of transport activity
[1]; 50 mM sucrose in external compartment, 200 mM sucrose and 15 mM ATP inside, pH 7.5, 10 min
  [3H]Arg uptake as percent of the control with external sucrose: about 45%
[1]; 50 mM sucrose in external compartment, control without external sucrose 0.93 ± 0.2, 10 min, pH 7.5
  transport rate of [3H]Arg uptake with external sucrose: 0.51 ± 0.18 nmol/mg/min
[1]; intraliposomal osmolality 50 to 175 mOsmol, plateau up to 225 mOsmol, 15 mM ATP, pH 7.5, 10 min
  change of [3H]Arg uptake with intraliposomal sucrose: increased approximately three times
